Assay results: the supplement of paper PMC10307832

Legend:
Test in all cases: relative viability (nuclei count vs DMSO), 5 days (fraction); higher = more cells survive
A-427 = tested on: A-427
Outline: (§1)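 Nuclei were stained with Hoechst during a one-step fixation (final 0.05% Triton X-100, 1% formaldehyde, 1 ug/ml Hoechst) carried out 5 days after dosing, then counted on 4× images. The cells, lung cancer lines in 1536-well plates, had been dosed by pin tool the day after seeding with one drug alone or a fixed anchor-drug dose plus five library-drug doses (not always all listed) in √10 steps. Relative viability is the nuclei count in treated wells divided by that in vehicle wells, and each value is the median of duplicate plates.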

NCI-H460 = tested on: NCI-H460
Outline: as §1

NCI-H522 = tested on: NCI-H522
Outline: as §1

NCI-H1395 = tested on: NCI-H1395
Outline: as §1

COR-L 105 = tested on: COR-L 105
Outline: as §1

NCI-H2009 = tested on: NCI-H2009
Outline: as §1

NCI-H1792 = tested on: NCI-H1792
Outline: as §1

SW 1573 = tested on: SW 1573
Outline: as §1

NCI-H1355 = tested on: NCI-H1355
Outline: as §1

NCI-H1975 = tested on: NCI-H1975
Outline: as §1

SK-LU-1 = tested on: SK-LU-1
Outline: as §1

HCC-827 = tested on: HCC-827
Outline: as §1

HARA = tested on: HARA
Outline: as §1

EMC-BAC-2 = tested on: EMC-BAC-2
Outline: as §1

NCI-H1437 = tested on: NCI-H1437
Outline: as §1

LCLC-103H = tested on: LCLC-103H
Outline: as §1

HOP-62 = tested on: HOP-62
Outline: as §1

CAL-12T = tested on: CAL-12T
Outline: as §1

NCI-H1915 = tested on: NCI-H1915
Outline: as §1

NCI-H23 = tested on: NCI-H23
Outline: as §1

HCC-366 = tested on: HCC-366
Outline: as §1

NCI-H1755 = tested on: NCI-H1755
Outline: as §1

NCI-H2228 = tested on: NCI-H2228
Outline: as §1

SMILES: Clc1ccc(Nc2nnc(Cc3ccncc3)c3ccccc23)cc1 [Vatalanib] + Nc1nc2[nH]cc(CCc3ccc(C(=O)N[C@@H](CCC(=O)O)C(=O)O)cc3)c2c(=O)[nH]1 [Pemetrexed] (partner 0.2 µM)
- relative viability (A-427; first compound 0.04 µM): 0.98
- relative viability (A-427; first compound 0.1265 µM): 0.957
- relative viability (A-427; first compound 0.4 µM): 0.993
- relative viability (A-427; first compound 4 µM): 0.947
- relative viability (NCI-H460; first compound 0.04 µM): 0.0651
- relative viability (NCI-H460; first compound 0.1265 µM): 0.0511
- relative viability (NCI-H460; first compound 0.4 µM): 0.0612
- relative viability (NCI-H460; first compound 1.265 µM): 0.0684
- relative viability (NCI-H460; first compound 4 µM): 0.0605
- relative viability (NCI-H522; first compound 0.04 µM): 0.923
- relative viability (NCI-H522; first compound 0.1265 µM): 0.861
- relative viability (NCI-H522; first compound 0.4 µM): 1.24
- relative viability (NCI-H522; first compound 1.265 µM): 0.86
- relative viability (NCI-H522; first compound 4 µM): 0.945
- relative viability (NCI-H1395; first compound 0.04 µM): 0.855
- relative viability (NCI-H1395; first compound 0.1265 µM): 0.764
- relative viability (NCI-H1395; first compound 0.4 µM): 0.767
- relative viability (NCI-H1395; first compound 4 µM): 0.842
- relative viability (COR-L 105; first compound 0.04 µM): 1.34
- relative viability (COR-L 105; first compound 0.1265 µM): 1.1
- relative viability (COR-L 105; first compound 0.4 µM): 1.2
- relative viability (COR-L 105; first compound 1.265 µM): 1.15
- relative viability (COR-L 105; first compound 4 µM): 1.04
- relative viability (NCI-H2009; first compound 0.04 µM): 0.975
- relative viability (NCI-H2009; first compound 0.1265 µM): 0.971
- relative viability (NCI-H2009; first compound 0.4 µM): 1.09
- relative viability (NCI-H2009; first compound 1.265 µM): 1.01
- relative viability (NCI-H2009; first compound 4 µM): 0.974
- relative viability (NCI-H1792; first compound 0.04 µM): 0.902
- relative viability (NCI-H1792; first compound 0.1265 µM): 0.781
- relative viability (NCI-H1792; first compound 0.4 µM): 0.771
- relative viability (NCI-H1792; first compound 1.265 µM): 0.817
- relative viability (NCI-H1792; first compound 4 µM): 0.699
- relative viability (SW 1573; first compound 0.1265 µM): 0.72
- relative viability (SW 1573; first compound 0.4 µM): 0.975
- relative viability (SW 1573; first compound 1.265 µM): 0.771
- relative viability (SW 1573; first compound 4 µM): 0.794
- relative viability (NCI-H1355; first compound 0.04 µM): 0.965
- relative viability (NCI-H1355; first compound 0.1265 µM): 1.01
- relative viability (NCI-H1355; first compound 0.4 µM): 1.08
- relative viability (NCI-H1355; first compound 1.265 µM): 0.979
- relative viability (NCI-H1355; first compound 4 µM): 0.936
- relative viability (NCI-H1975; first compound 0.04 µM): 0.265
- relative viability (NCI-H1975; first compound 0.1265 µM): 0.305
- relative viability (NCI-H1975; first compound 0.4 µM): 0.297
- relative viability (NCI-H1975; first compound 1.265 µM): 0.28
- relative viability (NCI-H1975; first compound 4 µM): 0.286
- relative viability (SK-LU-1; first compound 0.04 µM): 0.966
- relative viability (SK-LU-1; first compound 0.1265 µM): 0.881
- relative viability (SK-LU-1; first compound 0.4 µM): 1.14
- relative viability (SK-LU-1; first compound 1.265 µM): 0.901
- relative viability (SK-LU-1; first compound 4 µM): 0.928
- relative viability (HCC-827; first compound 0.04 µM): 0.241
- relative viability (HCC-827; first compound 0.1265 µM): 0.232
- relative viability (HCC-827; first compound 1.265 µM): 0.263
- relative viability (HCC-827; first compound 4 µM): 0.231
- relative viability (HARA; first compound 0.04 µM): 0.225
- relative viability (HARA; first compound 0.1265 µM): 0.265
- relative viability (HARA; first compound 0.4 µM): 0.252
- relative viability (HARA; first compound 1.265 µM): 0.232
- relative viability (HARA; first compound 4 µM): 0.256
- relative viability (EMC-BAC-2; first compound 0.04 µM): 0.452
- relative viability (EMC-BAC-2; first compound 0.1265 µM): 0.427
- relative viability (EMC-BAC-2; first compound 0.4 µM): 0.456
- relative viability (EMC-BAC-2; first compound 4 µM): 0.463
- relative viability (NCI-H1437; first compound 0.04 µM): 0.33
- relative viability (NCI-H1437; first compound 0.1265 µM): 0.342
- relative viability (NCI-H1437; first compound 0.4 µM): 0.328
- relative viability (NCI-H1437; first compound 1.265 µM): 0.26
- relative viability (NCI-H1437; first compound 4 µM): 0.275
- relative viability (LCLC-103H; first compound 0.04 µM): 0.343
- relative viability (LCLC-103H; first compound 0.1265 µM): 0.428
- relative viability (LCLC-103H; first compound 0.4 µM): 0.449
- relative viability (LCLC-103H; first compound 1.265 µM): 0.487
- relative viability (LCLC-103H; first compound 4 µM): 0.453
- relative viability (HOP-62; first compound 0.04 µM): 0.273
- relative viability (HOP-62; first compound 0.1265 µM): 0.336
- relative viability (HOP-62; first compound 0.4 µM): 0.277
- relative viability (HOP-62; first compound 1.265 µM): 0.275
- relative viability (HOP-62; first compound 4 µM): 0.349
- relative viability (CAL-12T; first compound 0.04 µM): 1.15
- relative viability (CAL-12T; first compound 0.1265 µM): 1.15
- relative viability (CAL-12T; first compound 0.4 µM): 1.19
- relative viability (CAL-12T; first compound 1.265 µM): 1.12
- relative viability (CAL-12T; first compound 4 µM): 1.22
- relative viability (NCI-H1915; first compound 0.04 µM): 0.505
- relative viability (NCI-H1915; first compound 0.1265 µM): 0.558
- relative viability (NCI-H1915; first compound 0.4 µM): 0.53
- relative viability (NCI-H1915; first compound 1.265 µM): 0.477
- relative viability (NCI-H1915; first compound 4 µM): 0.498
- relative viability (NCI-H23; first compound 0.04 µM): 0.579
- relative viability (NCI-H23; first compound 0.1265 µM): 0.654
- relative viability (NCI-H23; first compound 0.4 µM): 0.728
- relative viability (NCI-H23; first compound 1.265 µM): 0.59
- relative viability (NCI-H23; first compound 4 µM): 0.544
- relative viability (HCC-366; first compound 0.04 µM): 0.148
- relative viability (HCC-366; first compound 0.1265 µM): 0.133
- relative viability (HCC-366; first compound 0.4 µM): 0.185
- relative viability (HCC-366; first compound 1.265 µM): 0.162
- relative viability (HCC-366; first compound 4 µM): 0.148
- relative viability (NCI-H1755; first compound 0.04 µM): 0.4
- relative viability (NCI-H1755; first compound 0.1265 µM): 0.504
- relative viability (NCI-H1755; first compound 0.4 µM): 0.461
- relative viability (NCI-H1755; first compound 1.265 µM): 0.416
- relative viability (NCI-H1755; first compound 4 µM): 0.38
- relative viability (NCI-H2228; first compound 0.04 µM): 0.352
- relative viability (NCI-H2228; first compound 0.1265 µM): 0.304
- relative viability (NCI-H2228; first compound 0.4 µM): 0.314
- relative viability (NCI-H2228; first compound 1.265 µM): 0.376
- relative viability (NCI-H2228; first compound 4 µM): 0.374
